Source: ChEMBL document CHEMBL1153387 (J Med Chem, 2009)
pEC50, pIC50, pKi: −log10 of the molar value. The source made the active and inactive calls. No cut-off for these calls is given here. Starred links: 1 amine or outer side, 2 acyl side, 3 side chain; linkers in the order of their positions; H or OH if unused. Non-standard residues stand in square brackets, D forms with d. Residues, ends and D or L forms follow the SMILES beside them. *: point of attachment. NMeβ3hLys = CN([C@@H](CCCCN)CC(=O)[*:2])[*:1]; Pentanoyl(5-guanidino) = NC(N)=NCCCCC(=O)*; αMeR = C[C@](N)(CCCNC(=N)N)C(=O)O; Tle = CC(C)(C)[C@H](N)C(=O)O; β3hK = NCCCC[C@H](N)CC(=O)O; Ahp = NCCCCCCC(=O)O

What was measured:
Serum [1] = assay: Metabolic stability in rat serum assessed as compound degradation rate at 1 mM by MALDI-TOF mass spectrometry assay; assay type: ADME, cell-free; conditions: 1000 µM
[2] = target: T1, Neurotensin receptor type 1 (Homo sapiens, UniProt P30989); assay: Agonist activity at NTR1 in human HT-29 cells assessed as increase in intracellular calcium concentration by FLIPR assay; assay type: functional, cell-based
[3] = Metabolic stability in human serum assessed as half time of disappearance at 1 mM by MALDI-TOF mass spectrometry assay; assay type: ADME, cell-free; conditions: read-out: T50
Serum [4] = assay: Metabolic stability in human serum assessed as compound degradation rate at 1 mM by MALDI-TOF mass spectrometry assay; assay type: ADME, cell-free; conditions: 1000 µM
Rattus norvegicus [5] = assay: Hypothermic activity in Sprague-Dawley rat assessed as time duration of maximal body temperature decrease at 5 mg/kg, ip; assay type: functional; conditions: route intraperitoneal
[6] = Metabolic stability in rat serum assessed as half time of disappearance at 1 mM by MALDI-TOF mass spectrometry assay; assay type: ADME, cell-free; conditions: read-out: T50
[7] = target: T1, Neurotensin receptor type 1; assay: Displacement of [125I]I-Tyr(3)NT from human NTR1
Rattus norvegicus [8] = assay: Hypothermic activity in Sprague-Dawley rat assessed as decrease in core body temperature at 5 mg/kg, ip at time of maximal body temperature decrease; assay type: functional; conditions: route intraperitoneal
[9] = target: T1, Neurotensin receptor type 1; assay: Agonist activity at NTR1 in human HT-29 cells assessed as increase in intracellular calcium concentration in presence of NTR1 antagonist SR-48692 by FLIPR assay; assay type: functional, cell-based

T1 sequence (P30989 whole entry): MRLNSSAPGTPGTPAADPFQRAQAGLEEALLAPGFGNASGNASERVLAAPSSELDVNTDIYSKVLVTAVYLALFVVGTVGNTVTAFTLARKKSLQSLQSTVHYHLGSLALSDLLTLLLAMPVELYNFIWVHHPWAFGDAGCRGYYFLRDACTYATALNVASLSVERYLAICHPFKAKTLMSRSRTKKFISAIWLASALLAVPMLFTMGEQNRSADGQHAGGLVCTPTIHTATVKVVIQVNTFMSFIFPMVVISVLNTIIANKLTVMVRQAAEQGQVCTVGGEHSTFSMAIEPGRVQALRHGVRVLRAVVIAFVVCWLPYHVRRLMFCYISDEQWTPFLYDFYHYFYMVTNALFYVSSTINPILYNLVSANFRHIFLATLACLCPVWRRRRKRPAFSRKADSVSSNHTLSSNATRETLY

| SMILES | Activity (Serum [1]) [µmol/min] | pEC50 [2] | half-life at 1000 µM [3] [h] | Activity (Serum [4]) [µmol/min] | Time (Rattus norvegicus [5]) [min] | half-life at 1000 µM [6] [h] | pIC50 [7] | pKi [7] | Activity (Rattus norvegicus [8]) [°C] | Activity [9] |
| --- | --- | --- | --- | --- | --- | --- | --- | --- | --- | --- |
| CC[C@@H](C)[C@H](NC(=O)[C@H](Cc1ccc(O)cc1)NC(=O)[C@@H]1CCCN1C(=O)[C@H](CCCNC(=N)N)NC(=O)CCCCNC(=N)N)C(=O)N[C@@H](CC(C)C)C(=O)O | 5.74 | 8.73 | 3.83 | 2.17 | 120 | 1.45 | 8.57 | 8.70 | -0.99 | – |
| CC[C@@H](C)[C@H](NC(=O)[C@H](Cc1ccc(O)cc1)NC(=O)[C@@H]1CCCN1C(=O)[C@H](CCCNC(=N)N)NC(=O)[C@H](CCCNC(=N)N)NC)C(=O)N[C@@H](CC(C)C)C(=O)O | 1.92 | 9.07 | 14 | 0.593 | 120 | 4.33 | 9.42 | 9.54 | -1.55 | – |
| CC[C@H](C)[C@H](NC(=O)[C@H](Cc1ccc(O)cc1)NC(=O)[C@@H]1CCCN1C(=O)[C@H](CCCN=C(N)N)NC(=O)[C@@H](N)CCCN=C(N)N)C(=O)N[C@@H](CC(C)C)C(=O)O | – | – | – | – | 300 | – | – | – | -0.55 | – |
| CC(C)C[C@H](NC(=O)[C@@H](NC(=O)[C@H](Cc1c[nH]c2ccccc12)NC(=O)[C@@H]1CCCN1C(=O)[C@H](CCCCN)NC(=O)CCCCNC(=N)N)C(C)(C)C)C(=O)O ({Pentanoyl(5-guanidino)}-KPW[Tle]L-OH) | 0.078 | 6.11 | 103 | 0.081 | 240 | 108 | 6.07 | 6.20 | -5.02 | – |
| CC(=O)N[C@@H](CCCCN)CC(=O)N[C@@H](CCCN=C(N)N)C(=O)N1CCC[C@H]1C(=O)N[C@@H](Cc1ccc(O)cc1)C(=O)N[C@H](C(=O)N[C@@H](CC(C)C)C(=O)O)C(C)(C)C (Ac-[β3hK]RPY[Tle]L-OH) | 0.146 | 7.24 | 54.5 | 0.153 | – | 57 | 6.74 | 6.87 | – | – |
| CC(C)C[C@H](NC(=O)[C@@H](NC(=O)[C@H](Cc1ccc(O)cc1)NC(=O)[C@@H]1CCCN1C(=O)[C@H](CCCNC(=N)N)NC(=O)CCCCCCN)C(C)(C)C)C(=O)O (H-[Ahp]RPY[Tle]L-OH) | 0.111 | 7.59 | 41 | 0.204 | 90 | 74.8 | 8.40 | 8.52 | -2.58 | – |
| CC(C)C[C@H](NC(=O)[C@@H](NC(=O)[C@H](Cc1c[nH]c2ccccc12)NC(=O)[C@@H]1CCCN1C(=O)[C@H](CCCCN)NC(=O)[C@@H](N)CCCN=C(N)N)C(C)(C)C)C(=O)O (H-RKPW[Tle]L-OH) | 37 | 6.66 | 0.263 | 31.8 | – | 0.225 | 6.39 | 6.52 | – | – |
| CC(C)C[C@H](NC(=O)[C@@H](NC(=O)[C@H](Cc1c[nH]c2ccccc12)NC(=O)[C@@H]1CCCN1C(=O)[C@H](CCCCN)NC(=O)[C@@H](N)CCCNC(=N)N)C(C)(C)C)C(=O)O (H-RKPW[Tle]L-OH) | – | – | – | – | 120 | – | – | – | -2.11 | – |
| CC[C@@H](C)[C@H](NC(=O)[C@H](Cc1ccc(O)cc1)NC(=O)[C@@H]1CCCN1C(=O)[C@H](CCCNC(=N)N)NC(=O)[C@@](C)(N)CCCNC(=N)N)C(=O)N[C@@H](CC(C)C)C(=O)O | 2.28 | – | 18.8 | 0.444 | 150 | 3.65 | – | – | -0.28 | – |
| CC(=O)N[C@@H](CCCCN)CC(=O)N[C@@H](CCCNC(=N)N)C(=O)N1CCC[C@H]1C(=O)N[C@@H](Cc1ccc(O)cc1)C(=O)N[C@H](C(=O)N[C@@H](CC(C)C)C(=O)O)C(C)(C)C (Ac-[β3hK]RPY[Tle]L-OH) | – | – | – | – | 150 | – | – | – | -3.54 | – |
| CN[C@@H](CCCCN)CC(=O)N[C@@H](CCCNC(=N)N)C(=O)N1CCC[C@H]1C(=O)N[C@@H](Cc1ccc(O)cc1)C(=O)N[C@H](C(=O)N[C@@H](CC(C)C)C(=O)O)C(C)(C)C (NMeβ3hLys-RPY[Tle]L-OH) | – | – | – | – | 180 | – | – | – | -3.68 | – |
| CC(C)C[C@H](NC(=O)[C@@H](NC(=O)[C@H](Cc1c[nH]c2ccccc12)NC(=O)[C@@H]1CCCN1C(=O)[C@H](CCCCN)NC(=O)[C@@](C)(N)CCCNC(=N)N)C(C)(C)C)C(=O)O (H-[αMeR]KPW[Tle]L-OH) | 0.095 | 5.73 | 132 | 0.064 | 120 | 87.8 | 5.54 | 5.66 | -4.28 | – |
| COc1cccc(OC)c1-c1cc(C(=O)NC2(C(=O)O)C3CC4CC(C3)CC2C4)nn1-c1ccnc2cc(Cl)ccc12 (stereo not given) [REMINERTANT] | – | – | – | – | – | – | 9.00 | – | – | – |
| CC[C@H](C)[C@H](NC(=O)[C@H](Cc1ccc(O)cc1)NC(=O)[C@@H]1CCCN1C(=O)[C@H](CCCN=C(N)N)NC(=O)[C@H](CCCN=C(N)N)NC(C)=O)C(=O)N[C@@H](CC(C)C)C(=O)O | – | – | – | – | 90 | – | – | – | -0.71 | – |
| CC[C@H](C)[C@H](NC(=O)[C@H](Cc1ccc(O)cc1)NC(=O)[C@@H]1CCCN1C(=O)[C@H](CCCNC(=N)N)NC(=O)[C@@H](N)CCCNC(=N)N)C(=O)N[C@@H](CC(C)C)C(=O)O | 49.8 | – | 0.282 | 29.6 | – | 0.167 | – | – | – | – |
| CC[C@@H](C)[C@H](NC(=O)[C@H](Cc1ccc(O)cc1)NC(=O)[C@@H]1CCCN1C(=O)[C@H](CCCN=C(N)N)NC(=O)[C@H](CCCN=C(N)N)N=[N+]=[N-])C(=O)N[C@@H](CC(C)C)C(=O)O | 3.53 | 9.11 | 5.05 | 1.65 | – | 2.35 | 9.01 | 9.14 | – | – |
| CC[C@@H](C)[C@H](NC(=O)[C@H](Cc1ccc(O)cc1)NC(=O)[C@@H]1CCCN1C(=O)[C@H](CCCNC(=N)N)NC(=O)[C@H](CCCNC(=N)N)N=[N+]=[N-])C(=O)N[C@@H](CC(C)C)C(=O)O | – | – | – | – | 240 | – | – | – | -1 | inactive |
| CC[C@H](C)[C@H](NC(=O)[C@H](Cc1ccc(O)cc1)NC(=O)[C@@H]1CCCN1C(=O)[C@H](CCCNC(=N)N)NC(=O)[C@H](CCCNC(=N)N)NC(C)=O)C(=O)N[C@@H](CC(C)C)C(=O)O | 2.38 | – | 11.9 | 0.701 | – | 3.5 | – | – | – | – |
| CC(=O)N[C@@H](CCCNC(=N)N)C(=O)N[C@@H](CCCCN)C(=O)N1CCC[C@H]1C(=O)N[C@@H](Cc1c[nH]c2ccccc12)C(=O)N[C@H](C(=O)N[C@@H](CC(C)C)C(=O)O)C(C)(C)C (Ac-RKPW[Tle]L-OH) | 0.089 | 6.12 | 124 | 0.068 | 270 | 94.3 | 6.06 | 6.19 | -4.3 | – |
| CN[C@@H](CCCCN)CC(=O)N[C@@H](CCCN=C(N)N)C(=O)N1CCC[C@H]1C(=O)N[C@@H](Cc1ccc(O)cc1)C(=O)N[C@H](C(=O)N[C@@H](CC(C)C)C(=O)O)C(C)(C)C (NMeβ3hLys-RPY[Tle]L-OH) | 0.117 | 8.10 | 57.2 | 0.146 | – | 71.8 | 7.57 | 7.69 | – | – |
